Work on `NC(=O)NNCc1ccc(OCCc2coc(-c3ccccc3)n2)cc1` yielded a melting point of 192 to 196 °C. Work on `CN(CCOc1ccc(CC(OCC(F)(F)F)C(=O)O)cc1)c1nc2ccccc2o1` (configuration not stated) yielded a melting point of 116 to 117 °C. For `COc1cc(-c2cc(=O)c3ccccc3o2)cc([N+](=O)[O-])c1OC`, the melting point was 216 to 217 °C. For `COC1=CC2=CCC3C4CC(C)C(=O)C4(C)CCC3C2(C)CC1` (configuration not stated), the melting point was 149 to 167 °C. `CC(=O)NCC(=NNC(N)=S)c1ccccc1` showed a melting point of 208 to 211 °C. In the case of `CC1=CC(c2cccc(C(F)(F)F)c2)C2=C(CCCC2=O)N1` (configuration not stated), the melting point is reported as 184 to 185 °C. Molecule `CCCCCC(CC(=O)Nc1cc(CO)ccc1C(C)(C)C)c1ccc(OC)cc1OC` (configuration not stated) has a melting point of 125 to 126 °C. For `CCOC(=O)C1CN2c3c(cc4ccccc4c3CCC2C)C1=O` (configuration not stated), the melting point was 178 to 180 °C. For `O=[N+]([O-])c1ccc(CCN2CCN(c3cc(Cl)nnc3Cl)CC2)c([N+](=O)[O-])c1`, the melting point was 145 to 146 °C. In the case of `CCCOc1ccccc1-c1nc2nc(N(C)C)ncc2c(=O)[nH]1`, the melting point is reported as 178 °C. `CCOc1nn(Cc2cccc(OCc3nc(-c4ccccc4)oc3C)n2)cc1CCC(=O)O` gave a melting point of 144 to 145 °C. In the case of `C/C(=C\c1ccc(C(=O)OCCO)cc1)c1ccc2c(c1)C(C)(C)CCC2(C)C`, the melting point is reported as 138 to 139 °C. In the case of `COC(=O)C1OC(I)C(OC(=O)C(C)(C)C)C(OC(=O)C(C)(C)C)C1OC(=O)C(C)(C)C` (configuration not stated), the melting point is reported as 98 to 100 °C. With `CSC(=S)C1(c2ccc3ccccc3n2)CCCS1` (configuration not stated) the melting point was 72 °C. Molecule `CCc1oc(C(c2ccccc2)c2ccccc2)nc1CC1CCc2c(cccc2OCC(=O)O)C1` (configuration not stated) has a melting point of 150 to 152 °C. `COC(=O)COc1ccc(SCc2cc(-c3ccc(C(F)(F)F)cc3)on2)c2c1CCCO2` gave a melting point of 112 to 113 °C. `CN1Cc2ccccc2C(Oc2ccc(C#N)cc2)C1` (configuration not stated) gave a melting point of 131 to 132 °C. Molecule `CONC(=O)c1[nH]c(C)c(-c2nc3ccc(Oc4ccccc4)cc3[nH]2)c1C` has a melting point of 166 to 168 °C. Molecule `CCOC(=O)c1ccc(CNC(N)=O)cc1` has a melting point of 173 to 175 °C. `CCOC(=O)C=Cc1cc([N+](=O)[O-])ccc1Cl` showed a melting point of 138 to 140 °C. `O=C(OCCN1C(=O)c2ccccc2C1=O)c1cccc2c(=O)c(OCCN3C(=O)c4ccccc4C3=O)c(-c3ccc(OCc4ccc5ccccc5n4)cc3)oc12` gave a melting point of 211 to 212 °C. Work on `CCCN(CCC)C(=O)c1cc(C(=O)N[C@@H](Cc2cc(F)cc(F)c2)[C@H](O)CNCc2cc(CN(C)C)ccn2)cc(-c2ncco2)c1` yielded a melting point of 65 to 68 °C. With `COc1nc(-c2ccc(F)cc2C)c2c(n1)N(c1c(F)cccc1F)C(=O)NC2` the melting point was 210 to 211 °C. Work on `C=C(C(=O)OCC)c1cccc(-c2cc3c(cc2C)C(C)(C)CCC3(C)C)c1` yielded a melting point of 70 to 72 °C. With `O=C(c1ccccc1)c1ccc(C(=O)N2Cc3ccccc3Oc3ccccc32)cc1` the melting point was 103 to 106 °C. In the case of `COC(=O)c1c(/C=C/c2ccccc2)ccc2ccccc12`, the melting point is reported as 68 to 71 °C. Molecule `CC(C)(C)OC(=O)N1CC(c2ccc(N)nc2)C1` has a melting point of 103 to 104 °C. `CCOC(=O)C(NC(C)=O)(C(=O)OCC)C1=Nc2ccc(C#N)cc2C(c2ccccc2F)=NC1` gave a melting point of 138 to 140 °C. In the case of `CC=C(C(=O)OC)c1ccccc1CBr`, the melting point is reported as 64 to 66 °C. Molecule `CN1CCN(C2=Cc3cc(Cl)ccc3Oc3ccccc32)CC1` has a melting point of 119 to 121 °C. For `CN1C(=O)C(C)(C)N=C(c2ccccc2F)c2cc([N+](=O)[O-])cc(Br)c21`, the melting point was 228 °C. `Nc1c(C(=O)CCC(=O)O)cccc1C(=O)c1ccc(Cl)cc1` showed a melting point of 172 to 177 °C. `O=C(O)c1ccc(Br)c(S)c1` gave a melting point of 315 to 317 °C. `COC(=O)/C=C/n1cnc2ccc(SC)cc2c1=O` gave a melting point of 170 °C. In the case of `CN1C2CCCC1CC(NC(=O)c1cc(Cl)cc3nc(-c4ccccc4)oc13)C2` (configuration not stated), the melting point is reported as 199 to 201 °C. Molecule `CCCCCCc1ccc(-c2ccc(C(=O)Oc3ccc(C(=O)O)c(Cl)c3)cc2)cc1` has a melting point of 164 to 166 °C. Molecule `COc1ccc2c3c(c(=O)oc2c1)CN(Cc1ccc(Cl)c(Cl)c1)CC3` has a melting point of 144 to 146 °C. `N#CC(C#N)(CC=C(Br)Br)Cc1ccc(OC(F)(F)F)cc1` showed a melting point of 127 °C. `COc1ccc(C=Nc2ccc(SC)cc2)cc1` gave a melting point of 183 to 184 °C. With `Cn1ccc(-c2[nH]nc3c2C(=O)c2c(NC(N)=O)cccc2-3)c1` the melting point was greater than 300 °C. Molecule `C#CC1(OC(=O)C(C)C)C(COC(=O)c2ccc(Cl)cc2)OC(n2ccc(N)nc2=O)C1OC(=O)C(C)C` (configuration not stated) has a melting point of 106 to 108 °C. For `CCOC(=O)c1c(-c2ccc(OC)c(OC)c2)c2cc(OC)c(OC)cc2[nH]c1=O`, the melting point was 273 to 276 °C. Work on `CC(C(N)=O)c1ccc2c(c1)C(=O)Cc1ccccc1S2` (configuration not stated) yielded a melting point of 190 to 192 °C. `Cc1cc2nc(NC(=O)C(C)(C)C)[nH]c(=O)c2[nH]1` gave a melting point of 156 to 157 °C. With `COC(=O)c1ccc2c(c1)Sc1ccccc1N=C2Cl` the melting point was 134 to 136 °C. `Cc1noc(-c2ccccc2NC(=O)OC2CCNCC2)n1` gave a melting point of 141 to 142 °C. In the case of `O=C(O)COc1c(Br)cc(-c2cccc3sc4ccccc4c23)cc1Br`, the melting point is reported as 212 to 213 °C. `O=c1c(CCCc2ccco2)cc2cccnc2n1-c1cccc([N+](=O)[O-])c1` showed a melting point of 166 to 167 °C. `C[C@]12CCC(=O)C=C1CC[C@@H]2c1cn[nH]n1` gave a melting point of 126 to 129 °C. `COc1ccc(Cn2nnnc2C2N3C(=O)C(NC(c4ccccc4)(c4ccccc4)c4ccccc4)C3SC2(C)C)cc1` (configuration not stated) showed a melting point of 178 to 182 °C. `CCCCn1ccc(-c2ccc(Oc3ccnc(C)c3)c(F)c2)c(C#N)c1=O` gave a melting point of 125 °C. `CCOC(=O)COc1cc2c(c(Cl)c1Cl)C(=O)C(C)(C(C)C)C2Br` (configuration not stated) showed a melting point of 83 to 85 °C. `Cc1cccc(Cl)c1C(N)=NO` showed a melting point of 136 to 137 °C. `Cc1ccc(C(=O)CC(=O)OC(C)(C)C)c(O)c1` gave a melting point of 88 to 90 °C. Molecule `O=C(C=Cc1cccc(S(=O)(=O)Nc2cccc3ccccc23)c1)NO` has a melting point of 180 °C. Work on `CC1CCc2c(c(-c3ccccc3)nc(=O)n2C(C)C)C1` (configuration not stated) yielded a melting point of 175 to 177 °C. `CC(=O)NC[C@H]1CN(c2ccc(N3CCC4(CC3)OCCO4)cc2)C(=O)O1` gave a melting point of 140 to 142 °C. For `Clc1ncccc1OCC1CO1` (configuration not stated), the melting point was 132 °C. Molecule `Cn1cc(C2=C(c3c4n(c5ccccc35)CCC(CNC(=O)OC(C)(C)C)C4)C(=O)OC2=O)c2ccccc21` (configuration not stated) has a melting point of 124 to 126 °C. With `O=C(O)C1C=Nc2c(cc(F)cc2[N+](=O)[O-])C1=O` (configuration not stated) the melting point was 254 to 256 °C. Molecule `CN1C(C(=O)Nc2cccccc2=O)=C(O)c2sccc2S1(=O)=O` has a melting point of 242 to 245 °C. Molecule `CC(C)CN(Cc1nc(-c2ncn3c2CN(C)C(=O)c2ccccc2-3)no1)CC(C)C` has a melting point of 170 to 172 °C. Molecule `CCOC(=O)C(=O)Nc1cccc(OC)c1C(N)=O` has a melting point of 170 to 173 °C. `Cc1ccc(/C=C(/C(=O)OC(C)(C)C)C(=O)c2ccccc2O)cc1` gave a melting point of 86 to 89 °C. For `COc1cc(COc2nn(-c3ccccc3)cc2C=O)ccc1OCc1nc(-c2ccco2)oc1C`, the melting point was 137 to 138 °C. In the case of `CC(C)Cn1c(=O)n(C)c(=O)c2c(SCCCO)c(C(O)c3cccc4ccccc34)sc21` (configuration not stated), the melting point is reported as 100 to 105 °C. In the case of `COC1=C(OC)C(=O)C2=C(CC(CCCCCCCC(=O)O)(c3ccccc3)C2)C1=O`, the melting point is reported as 63 to 66 °C. Work on `CN1CCC23COC(C)(C)OC2C1Cc1ccc(O)cc13` (configuration not stated) yielded a melting point of 237 to 238 °C. `N#Cc1ccc([C@@H]2[C@@H]3C(=O)N(Cc4ccccc4)C(=O)[C@@H]3[C@H]3CCCN32)cc1` (racemic) showed a melting point of 191 to 193 °C. In the case of `Cc1cc(C2(C(F)(F)F)CN(c3ccc(C(=O)NCC(F)(F)F)cc3)CO2)ccc1F` (configuration not stated), the melting point is reported as 151 to 152 °C. `C/C(=C\Cn1oc(=O)[nH]c1=O)c1cccc(OCc2nc(-c3ccc(OCC(F)(F)F)cc3)oc2C)c1` showed a melting point of 145 to 146 °C. Molecule `COc1ccc(OCCCCCN2CCC(CNC(=O)c3cc(Cl)c(N)cc3OC)CC2)cc1OC` has a melting point of 85 to 87 °C. In the case of `NC(=O)N(O)CCNC(=O)c1cccc(Oc2ccc(Cl)c(Cl)c2)c1`, the melting point is reported as 153 to 156 °C. With `Cc1cc(-c2cc(C(F)(F)F)n3ncc(I)c3n2)ccc1Cl` the melting point was 151 °C. `Cc1cc(C)c(N2CCCCC2=O)cc1NS(=O)(=O)C(F)(F)F` gave a melting point of 260 to 266 °C. `CCNC(=O)c1c(F)cccc1[Si](C)(C)C` showed a melting point of 86 to 87 °C. Molecule `Cn1c(C(F)(F)F)cc(=O)n(-c2ccc3snc(C=O)c3c2)c1=O` has a melting point of 193 to 194 °C. In the case of `CCOC(=O)[C@](CC(=O)OC1CC(C)CCC1C(C)C)(NC(=O)OC(C)(C)C)C(N)=O` (some centres not stated), the melting point is reported as 176 °C. Molecule `COC(=O)/C=C/n1cnc2ccc(Cl)cc2c1=O` has a melting point of 171 to 172 °C. In the case of `COc1ccc(CN2CCC(COc3ccc(F)cc3)CC2)cc1`, the melting point is reported as 79 to 81 °C. `O=[N+]([O-])c1cc(S(=O)(=O)C(F)(F)F)c(-c2ccc(Cl)cc2)[nH]1` gave a melting point of 174 to 180 °C. Molecule `CCCCc1nn(-c2cc(C(=O)N(C)CCCC)ccc2Cl)c(=O)n1Cc1ccc(-c2ccccc2S(=O)(=O)NC(=O)c2ccccc2Cl)cc1` has a melting point greater than 90 °C. With `Cc1nnc(-c2ccc3occ(-c4cnn(Cc5ccccn5)c4)c3c2)o1` the melting point was 134 to 135 °C. With `COc1ccc(S(=O)(=O)Nc2ccccc2C(F)(F)F)cc1` the melting point was 92 to 93 °C. In the case of `O=C(O)COc1cc(F)ccc1C(=S)NCc1nc2c(F)c(F)cc(F)c2s1`, the melting point is reported as 150 °C. `O=CC(Nc1ccc2c(c1)OCC(=O)N2)N1CCC(Cc2ccccc2)CC1` (configuration not stated) showed a melting point of 172 to 175 °C. In the case of `OC(CCn1cccn1)c1ccc(OCc2ccccc2)cc1` (configuration not stated), the melting point is reported as 80 to 85 °C. `CCNc1cc(C(=O)O)cc(S(N)(=O)=O)c1Oc1ccccc1` gave a melting point of 236 to 237 °C. In the case of `CCCCn1nc(SC2CCC(CC(=O)O)CC2)c(C(=O)O)c1Cc1cc2c(cc1Cl)OCO2` (configuration not stated), the melting point is reported as 100 °C. Molecule `O=C(c1ccc[nH]1)c1cccn1N1C(=O)c2ccccc2C1=O` has a melting point of 204 to 206 °C. `O=C(Nc1ccc(-c2ncon2)cc1)OCC(Cl)(Cl)Cl` gave a melting point of 108 to 110 °C. In the case of `CCCCn1cc(C(=O)C(=O)O)c2cc(-c3ccc(Cl)cc3)ccc21`, the melting point is reported as 136 to 137 °C. In the case of `O=C(c1ccccc1)c1cc(Cl)ccc1-n1cnnc1`, the melting point is reported as 182 to 184 °C. Molecule `CC1(C)CCC[C@H](N2C(=O)c3ccccc3C2=O)C(=O)N1` has a melting point of 193 to 194 °C. Molecule `O=C(Nc1ccc(C(=O)N2Cc3cccn3Cc3ccccc32)cc1)c1sc2ccccc2c1Cl` has a melting point of 220 to 222 °C. Work on `O=C(OCc1ccc([N+](=O)[O-])cc1)N1CCC(I)CC1` yielded a melting point of 102 to 104 °C. `CCOC(=O)CCCCCBr` gave a melting point of 34.5 to 36 °C.
